From patent US20240216401A1, “COMBINATION THERAPY BY USING AKR1C3-ACTIVATED COMPOUND WITH IMMUNE CHECKPOINT INHIBITOR” (OBI Pharma, Inc., priority 2021, published 2024)
Several values for one entry are separate records, joined by “and”; a condition that tells them apart may be missing. Equal values may be shown once.

How the values were obtained:
Type in all cases: in vivo, Mus musculus
[1] = Example 2: body weight of HepG2 tumor bearing humanized mice; conditions: for Body Weight: individual animal; for Body Weight (g) Mean: group mean
Procedure: 1. Species: Mus musculus • Strain: Advanced immunodeficiency mouse. • (NOD.CgPrkdc^scid Il2rg) • Source: Trineo Biotechnology Co., LTD.
Each group contains six mice. The human hepatocellular carcinoma cell line HepG2 were subcutaneously inoculated to the advanced immune-deficiency mice. Total of 42 mice were included in this study.
3.1. […] The injection was performed using insulin syringe with the dosage of 0.3 mg/kg or 1 mg/kg and the injection volume was 5 mL/kg. […] The reference item was administered for G1. The procedure followed the standards of sample administration. The starting day of test item administration was denoted as the first experimental day (DO).
3.2. […] The injection was performed using insulin syringe with the dosage of 20 mg/kg and injection volume of 10 mL/kg. […] The procedure followed the standards of sample administration.
The measurement was performed from the next day of the inoculation. The animal body weights were measured and recorded twice per week.

[2] = system: PD-L1^+ cells in tumor-infiltrating lymphocytes; test: Example 2: flow cytometry, percentage of PD-L1^+ cells in TILs
Procedure: (§1) Mice were sacrificed by CO2 euthanasia at the end of the study duration, and the connective tissue around tumor was resected. The tumor samples were then weighed and cut equally into three sections if the tumor weight over 400 mg. The tumor tissue was prepared for the isolation of tumor-infiltrating lymphocytes (TILs). The rest of one section was fixed in 10% formaldehyde and embedded in paraffin; the other was stored at a temperature below −70° C.
(§2) The tumor samples were dissected into smaller fragments using scalpels and then digested with a cocktail of collagenase, DNase I, and Hyaluronidase (Collagenase #C5138, DNase I #D5025, Hyaluronidase #H6254, SigmaAldrich) for at least 2 hours.
(§3) Cells were stained with the fluorescently conjugated surface antibodies and incubated for 30 minutes at 4° C., and then resuspended in staining buffer for flow cytometric analysis. Flow cytometry was done using a Navios EX Flow Cytometer (Beckman Coulter). Data were analyzed using the Kaluza Analysis Software (Beckman Coulter).

[3] = system: T helper (TH) cells (CD45^+CD4^+ T cells) in tumor-infiltrating lymphocytes; test: Example 2: flow cytometry, percentage of TH cells in TILs
Procedure: as §1, §2, §3

[4] = G2, OBI-3424 0.3 mg/kg, group Mean
[5] = G2, OBI-3424 0.3 mg/kg, individual animal, 0.3 mg/kg
[6] = G3, OBI-3424 1 mg/kg, group Mean
[7] = G3, OBI-3424 1 mg/kg, individual animal, 1 mg/kg
[8] = G2: OBI-3424 (0.3 mg/kg), group Mean

SMILES: C[C@H](OP(=O)(N1CC1)N1CC1)c1ccc([N+](=O)[O-])c(Oc2cccc(C(=O)N(C)C)c2)c1 [OBI-3424, (S)-1-(3-(3-N,N-dimethylaminocarbonyl)phenoxyl-4-mtrophenyl)-1-ethyl-N,N′-bis(ethylene)phosphoramidate]
- body weight (in words) ([1]; Example 2, until Day 30): Body weight loss was not seen
- Body Weight ([1]; G2: OBI-3424 0.3 mg/kg, D2 after test item administration, 0.3 mg/kg): 22.12 g
- Body Weight ([1]; G2: OBI-3424 0.3 mg/kg, D6 after test item administration, 0.3 mg/kg): 24.82 g
- Body Weight ([1]; G2: OBI-3424 0.3 mg/kg, D9 after test item administration, 0.3 mg/kg): 20.84 g and 24.58 g
- Body Weight ([1]; G2: OBI-3424 0.3 mg/kg, D13 after test item administration, 0.3 mg/kg): 23.96 g and 24.87 g
- Body Weight ([1]; G2: OBI-3424 0.3 mg/kg, D16 after test item administration, 0.3 mg/kg): 24.02 g and 24.56 g and 24.17 g
- Body Weight ([1]; G2: OBI-3424 0.3 mg/kg, D20 after test item administration, 0.3 mg/kg): 22.00 g and 24.21 g and 23.98 g
- Body Weight ([1]; G2: OBI-3424 0.3 mg/kg, D23 after test item administration, 0.3 mg/kg): 23.98 g
- Body Weight (g) Mean ([1]; G2: OBI-3424 0.3 mg/kg, D30 after test item administration): 22.06 g
- Body Weight ([1]; G2: OBI-3424 0.3 mg/kg, D30 after test item administration, 0.3 mg/kg): 20.17 g and 21.65 g
- Body Weight ([1]; G2: OBI-3424 0.3 mg/kg, L0 after tumor cell injection, 0.3 mg/kg): 20.66 g and 23.04 g and 25.00 g
- Body Weight ([1]; G2: OBI-3424 0.3 mg/kg, L1 after tumor cell injection, 0.3 mg/kg): 23.02 g
- Body Weight (g) Mean ([1]; G2: OBI-3424 0.3 mg/kg, L3 after tumor cell injection): 22.99 g
- Body Weight ([1]; G2: OBI-3424 0.3 mg/kg, L7 after tumor cell injection, 0.3 mg/kg): 23.01 g
- Body Weight ([1]; G3: OBI-3424 1 mg/kg, D2 after test item administration, 1 mg/kg): 20.20 g and 24.22 g
- Body Weight ([1]; G3: OBI-3424 1 mg/kg, D6 after test item administration, 1 mg/kg): 24.90 g
- Body Weight ([1]; G3: OBI-3424 1 mg/kg, D9 after test item administration, 1 mg/kg): 22.01 g and 24.85 g
- Body Weight ([1]; G3: OBI-3424 1 mg/kg, D13 after test item administration, 1 mg/kg): 25.97 g
- Body Weight ([1]; G3: OBI-3424 1 mg/kg, D20 after test item administration, 1 mg/kg): 24.21 g and 25.53 g and 21.98 g
- Body Weight (g) Mean ([1]; G3: OBI-3424 1 mg/kg, D23 after test item administration): 24.04 g
- Body Weight ([1]; G3: OBI-3424 1 mg/kg, D23 after test item administration, 1 mg/kg): 23.02 g and 25.37 g
- Body Weight ([1]; G3: OBI-3424 1 mg/kg, D30 after test item administration, 1 mg/kg): 22.02 g
- Body Weight ([1]; G3: OBI-3424 1 mg/kg, L0 after tumor cell injection, 1 mg/kg): 19.46 g
- Body Weight ([1]; G3: OBI-3424 1 mg/kg, L3 after tumor cell injection, 1 mg/kg): 20.70 g and 24.21 g and 20.80 g and 24.01 g
- Body Weight ([1]; G3: OBI-3424 1 mg/kg, L7 after tumor cell injection, 1 mg/kg): 24.22 g and 25.55 g
- PD-L1^+ cells (CD45^− PD-L1^+), CD45^− Gated % [2, 4]: 9.15%
- PD-L1^+ cells (CD45^− PD-L1^+), Cell count [2, 4]: 4.91 ×10^5
- PD-L1^+ cells (CD45^− PD-L1^+), Total % [2, 4]: 1.95%
- Total PD-L1^+ cells (PD-L1^+), Cell count [2, 4]: 9.60 ×10^5
- Total PD-L1^+ cells (PD-L1^+), Total % [2, 4]: 3.79%
- Total PD-L1^+ cells (PD-L1^+), Total cells Gated % [2, 4]: 5.18%
- PD-L1^+ cells (CD45^− PD-L1^+), CD45^− Gated % [2, 5]: 15.51% and 5.86% and 9.64% and 4.13% and 12.53% and 7.23%
- PD-L1^+ cells (CD45^− PD-L1^+), Cell count [2, 5]: 9.41 ×10^5 and 2.07 ×10^5 and 10.69 ×10^5 and 0.07 ×10^5 and 6.63 ×10^5 and 0.61 ×10^5
- PD-L1^+ cells (CD45^− PD-L1^+), Total % [2, 5]: 4.84% and 1.01% and 1.98% and 0.35% and 2.69% and 0.84%
- Total PD-L1^+ cells (PD-L1^+), Cell count [2, 5]: 14.43 ×10^5 and 6.01 ×10^5 and 24.62 ×10^5 and 0.29 ×10^5 and 10.67 ×10^5 and 1.56 ×10^5
- Total PD-L1^+ cells (PD-L1^+), Total % [2, 5]: 7.42% and 2.94% and 4.56% and 1.34% and 4.33% and 2.15%
- Total PD-L1^+ cells (PD-L1^+), Total cells Gated % [2, 5]: 11.84% and 3.97% and 5.50% and 1.44% and 5.16% and 3.16%
- PD-L1^+ cells (CD45^− PD-L1^+), CD45^− Gated % [2, 6]: 4.40%
- PD-L1^+ cells (CD45^− PD-L1^+), Cell count [2, 6]: 0.38 ×10^5
- PD-L1^+ cells (CD45^− PD-L1^+), Total % [2, 6]: 0.48%
- Total PD-L1^+ cells (PD-L1^+), Cell count [2, 6]: 1.61 ×10^5
- Total PD-L1^+ cells (PD-L1^+), Total % [2, 6]: 2.08%
- Total PD-L1^+ cells (PD-L1^+), Total cells Gated % [2, 6]: 2.24%
- PD-L1^+ cells (CD45^− PD-L1^+), CD45^− Gated % [2, 7]: 4.18% and 2.31% and 4.37% and 7.16% and 4.63%
- PD-L1^+ cells (CD45^− PD-L1^+), Cell count [2, 7]: 0.08 ×10^5 and 0.30 ×10^5 and 0.41 ×10^5 and 0.51 ×10^5 and 0.49 ×10^5 and 0.47 ×10^5
- PD-L1^+ cells (CD45^− PD-L1^+), Total % [2, 7]: 0.27% and 0.24% and 0.58% (2×) and 0.52% and 0.66%
- Total PD-L1^+ cells (PD-L1^+), Cell count [2, 7]: 0.46 ×10^5 and 1.50 ×10^5 and 2.03 ×10^5 and 1.69 ×10^5 and 1.67 ×10^5 and 2.32 ×10^5
- Total PD-L1^+ cells (PD-L1^+), Total % [2, 7]: 1.58% and 1.19% and 2.88% and 1.71% and 2.24% and 2.86%
- Total PD-L1^+ cells (PD-L1^+), Total cells Gated % [2, 7]: 1.66% and 1.26% and 3.32% and 1.80% and 2.39% and 3.03%
- TH cells (CD45^+CD4^+ T cells) in TILs ([3]; Example 2, mean±SEM, OBI-3424 1 mg/kg, alone (G3) or with anti-hPD-1 (G6)): 25.05±2.08%
- CD25^+ TH cells (CD45^+CD4^+ CD25^+) Total % [3, 8]: 2.46%
- CD25^+ TH cells (CD45^+CD4^+CD25^+) Cell count (×10^5) [3, 8]: 4.93 ×10^5
- CD25^+ TH cells (CD45^+CD4^+CD25^+) TH Gated % [3, 8]: 18.22%
- CD69^+ TH cells (CD45^+CD4^+CD69^+) Cell count (×10^5) [3, 8]: 13.89 ×10^5
- CD69^+ TH cells (CD45^+CD4^+CD69^+) TH Gated % [3, 8]: 60.13%
